From patent US6214805A, “RNase L activators and antisense oligonucleotides effective to treat RSV infections” (priority 1997, dated 2001)
Where two headings read alike, the source gives them in different places.

Columns and labels:
[1] = tested on: RSV 393 (clinical isolate); test: CPE inhibition assay in HEp-2 cells, RSV 393; assay type: cell-based, Respiratory syncytial virus; conditions: Table 12, CPE, once a day for two days
Method: (§1) The CPE inhibition assay used in this study was performed as described by Sidwell and Huffman (Sidwell et al., 1971, Appl. Microbiol. 22:7979-7801) with slight modifications. Varying concentrations of test compounds were added to each plate containing near confluent cell monolayers (1×10^5 cells/well) followed immediately by the addition of virus at a multiplicity of infection (MOI)=0.01, and then incubated at 37° C. On the following day, the medium from each plate was removed and fresh compound added. The assay was stopped at the end of the sixth day when the virus cytopathic effect in the virus infected, untreated control cells affected all cells. All compounds were assayed for virus inhibition in quadruplicate and for cytotoxicity in duplicate. For each compound, two wells were set aside as uninfected, untreated cell controls per test and four wells per test received virus only and represented controls for virus replication. […] For all CPE-based assays, the 50% effective concentration (EC50) was calculated by regression analysis using the means of the CPE ratings at each concentration of compound.
(§2) In this series, MP351 was added once a day for two days with fresh medium

RSV strain A2 [2] = test: Neutral red uptake assay of CPE inhibition in HEp-2 cells; assay type: cell-based, Respiratory syncytial virus; conditions: read-out: EC50
Method: (§3) This assay was performed by a modified method as described by Cavenaugh et al. (Cavenaugh et al. 1990, Invest. New Drugs 8:347-354). Briefly, medium was removed from each well of a plate scored for CPE from a CPE inhibition assay, 0.2 ml of neutral red (0.034% in PSS) was added to each of the wells of that plate and the plate incubated for 2 hr at 37° C. in the dark. The neutral red solution was removed from the wells and the wells rinsed twice with PBS (pH 7.4). Equal volumes (0.1 ml) of absolute ethanol and Sorenson citrate buffer (0.1 M sodium citrate, 0.1 M HCI, pH 4.2) were mixed together and added to each well. Plates were incubated in the dark for 30 min. at room temperature to solubilize the dye. The plates were then gently mixed on a 96-well plate adapted vortexer for 1 min. Absorbances at 540 nm and 450 nm were read with a microplate reader (Bio-Tek EL 1309; Bio-Tek Instruments, Inc. Winooski, Vt.). Absorbance values were expressed as percents of untreated controls and EC50 and IC50 values were calculated by regression analysis.

RSV Long (A) [3] = test: CPE inhibition assay in HEp-2 cells, RSV strain Long; assay type: cell-based, Respiratory syncytial virus; conditions: Table 12, CPE, once a day for two days
Method: as §1, §2

MA-104 cells = test: Cytotoxicity graded by morphological change in MA-104 cells; assay type: cell-based, African green monkey
Method: (§4) Embryonic African green monkey kidney cells (MA-104) were obtained from BioWhittaker, Inc. (Walkersville, Md.). HEp-2 cells were propagated from a human epidermoid carcinoma of the larynx (American Type Culture Collection, ATCC; Rockville, Md.). The cells were grown in minimal essential medium. (MEM, Gibco-BRL, Gaitherburg, Md.) supplemented with 0.1% NaHCO3 and 10% fetal bovine serum (FBS, Hyclone Laboratories, Logan Utah.). When performing antiviral assays, serum was reduced to 2% and 50 μg/ml gentamicin (Sigma Chemical Company, St. Louis, Mo.) was added to the medium.
(§5) Morphological changes due to compound cytotoxicity were graded on a scale of 0-5; grade 5 was defined as 100% cytotoxicity. The 50% cytotoxic dose (IC50 was calculated by regression analysis. A selective index (S.I.) was calculated for each compound [S.I.=(IC50)/(EC50 ].
IC50 Conc. for 50% cytotoxicity grade by morphological change (microM)
(§6) Determined in MA-104 cells, A2 strain RSV

RSV strain A2 [4] = test: CPE inhibition assay in HEp-2 cells; assay type: cell-based, Respiratory syncytial virus; conditions: Table 10, CPE; B.I.D. 3 days; HEp2; read-out: EC50
Method: as §1, with “On the following day, the medium from each plate was removed and fresh compound added. The assay was stopped at the end of the sixth day when the virus cytopathic effect in the virus infected, untreated control cells affected all cells.” left out

Hep-2 Cells [5] = test: Cytotoxicity by morphological changes in HEp-2 cells (CPE inhibition assay); assay type: cell-based, human
Method: as §4, §5

Hep-2 Cells [6] = test: Neutral red uptake assay of cytotoxicity in HEp-2 cells; assay type: cell-based, human
Method: as §4, §3

RSV CH18537 (B) [7] = test: Neutral red uptake assay in HEp-2 cells, RSV strain CH18537; assay type: cell-based, Respiratory syncytial virus; conditions: Table 12, neutral red, once a day for two days
Method: as §3, §2

A2 strain RSV = test: CPE inhibition assay in MA-104 cells; assay type: cell-based, Respiratory syncytial virus
Method: as §1
EC50 Concentration for 50% inhibition of virus replication (microM)
as §6

[8] = tested on: RSV 393 (clinical isolate); test: Neutral red uptake assay in HEp-2 cells, RSV 393; assay type: cell-based, Respiratory syncytial virus; conditions: Table 12, neutral red, once a day for two days
Method: as §3, §2

RSV CH18537 (B) [9] = test: CPE inhibition assay in HEp-2 cells, RSV strain CH18537; assay type: cell-based, Respiratory syncytial virus; conditions: Table 12, CPE, once a day for two days
Method: as §1, §2

RSV Long (A) [10] = test: Neutral red uptake assay in HEp-2 cells, RSV strain Long; assay type: cell-based, Respiratory syncytial virus; conditions: Table 12, neutral red, once a day for two days
Method: as §3, §2

RSV strain A2 [11] = test: Virus yield reduction assay in HEp-2 cells; assay type: cell-based, Respiratory syncytial virus; conditions: compound added twice daily
Method: EC50 & EC90 : concentration required to reduce virus (RSV strain
Both compounds were added to the cells twice daily.

RSV M2 RNA = test: RT-PCR of M2 RNA from RSV-infected 9HTE cells; assay type: cell-based, Respiratory syncytial virus; conditions: RNA at 8 h post-infection, M.O.I.=10
Method: To determine if RSV RNA levels correlated with antiviral activity, RT-PCR analysis was performed on RNA isolated from RSV-infected and uninfected 9HTE cells with and without treatment with spA4 -antiRSV3'3'T/(8281-8299) or spA4 -antiRSV3'3'A/(8530-8547). An M2 RNA sequence in RSV (from nucleotides 7879 to 8465) was converted to cDNA and amplified by PCR. M2 RNA from the RSV-infected cells produced an RT-PCR DNA product that was clearly visible. […] Levels of GAPDH transcripts were similar in all of these RNA preparations.
RNA was collected from 2×10^5 9HTE cells at 8 h post-infection (M.O.I.=10) by RNAzol treatment as described by the manufacturer (Tel-Test, Inc, Freindswood, Tex.). RNA was isolated after 8 h to limit RSV replication to a single cycle. Isolated RNA (≈1 μg) was incubated with 100 pmoles of the appropriate downstream (-) primer listed below or 100 pmoles of random hexamer (used for glyceraldehyde-3-phosphatedehydrogenase, GAPDH, mRNA only). RNA and primers were heated to 70° C. for 10 min then cooled rapidly on ice for 5 min. […]
25 μl Hot-Start upper buffer contained 5 U Taq DNA polymerase (GibcoBRL) and 1/10th of the cDNA from the RT reaction. […] Aliquots of the RT/PCR mixtures were analyzed on 1% agarose/TBE gels.

[12] = Table 11, neutral red, q.d. 3 days, HEp2
[13] = MA-104 cells (Table 8), read-out: IC50 Conc. for 50% cytotoxicity grade by morphological change
[14] = MA-104 cells, A2 strain RSV (Table 8), read-out: EC50 Concentration for 50% inhibition of virus replication
[15] = Table 8, text says HEP-2 cells, read-out: IC50 (toxicity)
[16] = Table 8, text says HEP-2 cells, read-out: EC50 (inhibition of RSV replication)

2-5A-L2-AsAsAsAATGGGGCAAAsTsAsA [MP351] showed an EC50 [1] of 300 nM, an EC50 (RSV strain A2 [2]; [12]) of 50 nM and an EC50 (RSV strain A2 [2]; Table 13, neutral red, q.d., fresh compound up to Day 1 post infection, HEp-2) of 320 nM. It also gave an EC50 (RSV Long (A) [3]) of 300 nM, an IC50 (MA-104 cells; [13]) greater than 10000 nM and an EC50 (RSV strain A2 [4]) of 40 nM. It also gave an IC50 (Hep-2 Cells [5]; Table 10, CPE, B.I.D. 2 days, HEp2) greater than 3200 nM, an IC50 (Hep-2 Cells [5]; Table 10, CPE, B.I.D. 3 days, HEp2) greater than 3200 nM and an IC50 (Hep-2 Cells [5]; Table 10, CPE, B.I.D. 4 days, HEp2) of 3200 nM. For the same substance, the IC50 (Hep-2 Cells [5]; Table 10, CPE, q.d. 1 day (added along with virus, never replenished), HEp2) was greater than 3200 nM, the IC50 (Hep-2 Cells [5]; Table 10, CPE, q.d. 3 days, HEp2) was greater than 3200 nM and the IC50 (Hep-2 Cells [5]; Table 10, CPE, q.d. 4 days, HEp2) was greater than 3200 nM. For the same substance, the IC50 (Hep-2 Cells [5]; Table 12, CPE, test with 393 (clinical isolate), HEp-2) was greater than 3200 nM, the IC50 (Hep-2 Cells [5]; Table 12, CPE, test with CH18537 (B), HEp-2) was greater than 3200 nM and the IC50 (Hep-2 Cells [5]; Table 12, CPE, test with Long (A), HEp-2) was greater than 3200 nM. For the same substance, the IC50 (Hep-2 Cells [5]; Table 13, CPE, q.d., Day 0, HEp-2) was greater than 3200 nM, the IC50 (Hep-2 Cells [5]; Table 13, CPE, q.d., Day 1, HEp-2) was greater than 3200 nM and the IC50 (Hep-2 Cells [5]; Table 13, CPE, q.d., Day 2, HEp-2) was 2200 nM. It also gave an IC50 (Hep-2 Cells [6]; Table 11, neutral red, B.I.D. 2 days, HEp2) of 3200 nM, an IC50 (Hep-2 Cells [6]; Table 11, neutral red, B.I.D. 3 days, HEp2) greater than 3200 nM and an IC50 (Hep-2 Cells [6]; Table 11, neutral red, B.I.D. 4 days, HEp2) of 3200 nM. It also gave an IC50 (Hep-2 Cells [6]; Table 11, neutral red, q.d. 1 day (added along with virus, never replenished), HEp2) greater than 3200 nM, an IC50 (Hep-2 Cells [6]; [12]) of 2000 nM and an IC50 (Hep-2 Cells [6]; Table 11, neutral red, q.d. 4 days, HEp2) greater than 3200 nM. The IC50 (Hep-2 Cells [6]; Table 12, neutral red, test with 393 (clinical isolate), HEp-2) was greater than 3200 nM, the IC50 (Hep-2 Cells [6]; Table 12, neutral red, test with CH18537 (B), HEp-2) was 2400 nM and the IC50 (Hep-2 Cells [6]; Table 12, neutral red, test with Long (A), HEp-2) was 2000 nM. For the same substance, the IC50 (Hep-2 Cells [6]; Table 13, neutral red, q.d., Day 0, HEp-2) was greater than 3200 nM, the IC50 (Hep-2 Cells [6]; Table 13, neutral red, q.d., Day 1, HEp-2) was greater than 3200 nM and the IC50 (Hep-2 Cells [6]; Table 13, neutral red, q.d., Day 2, HEp-2) was 2200 nM. For the same substance, the EC50 (RSV CH18537 (B) [7]) was 100 nM, the EC50 (A2 strain RSV; MA104 cells, CPE assay, added once or once daily for 2 days, read-out: EC50) was 1000 nM and the EC50 (A2 strain RSV; [14]) was 300 nM. It also gave an EC50 [8] of 1600 nM, an EC50 (RSV CH18537 (B) [9]) of 100 nM and an EC50 (RSV Long (A) [10]) of 400 nM. The EC50 (RSV strain A2 [11]; virus yield reduced by 50%) was 320 nM and the EC90 (RSV strain A2 [11]; virus yield reduced by 90%) was 1000 nM.
Work on “GsAsAsGsAsCsAsGsAsAsTsAsAsGsAsTsA (GAAGACAGAATAAGATA; antisense; DNA, all phosphorothioate, methylation of C not given here) [MP318]” yielded an IC50 (MA-104 cells; [13]) of 8000 nM, an IC50 (MA-104 cells; [15]) of 8000 nM and an EC50 (A2 strain RSV; [14]) of 10000 nM. It also gave an EC50 (A2 strain RSV; [16]) of 10000 nM.
For “spA2'p(A2'p)3 -[(Bu)p]2 -(5'cta tcg gtt aga taa ac3'-3'a5') [spA4-antiRSV3'-3'A/(8530-8547)]”, the “inhibition of levels of M2 RNA” value (RSV M2 RNA) was 17%.
Substance “AsAsAsAATGGGGCAAAsTsAsA (AAAAATGGGGCAAATAA; antisense; DNA, linkages s3 o10 s3 (s phosphorothioate, o phosphodiester), methylation of C not given here) [MP320, gapmer antisense oligonucleotide, three thiophosphorylated linkages at both termini]” has an IC50 (MA-104 cells; [13]) greater than 10000 nM and an EC50 (A2 strain RSV; [14]) of 10000 nM.
“AsTsAsAsGsGsGsGsAsAsCsAsTsAsAsAsA (ATAAGGGGAACATAAAA; antisense; DNA, all phosphorothioate, methylation of C not given here) [MP317, control all PS oligonucleotide that still contained the G quartet motif but otherwise scrambled]” showed an IC50 (MA-104 cells; [13]) of 5000 nM, an IC50 (MA-104 cells; [15]) of 5000 nM and an EC50 (A2 strain RSV; [14]) of 1000 nM. The EC50 (A2 strain RSV; [16]) was 1000 nM.
“AsAsAsAsAsTsGsGsGsGsCsAsAsAsTsAsA (AAAAATGGGGCAAATAA; antisense; DNA, all phosphorothioate, methylation of C not given here) [MP273]” showed an IC50 (MA-104 cells; [13]) greater than 10000 nM, an IC50 (MA-104 cells; [15]) greater than 10000 nM and an EC50 (A2 strain RSV; [14]) of 3000 nM. The EC50 (A2 strain RSV; [16]) was 3000 nM.
